The results in this text go back to ChEMBL document CHEMBL4334474, “Friomaramide, a Highly Modified Linear Hexapeptide from an Antarctic Sponge, Inhibits Plasmodium falciparum Liver-Stage Development” (J Nat Prod, 2019).

One may read the inhibition as the change of the read-out against control, counted positive when it falls.

Data set [1] concerns Hepatocyte. The data set can be described thus: Cytotoxicity against human primary hepatocytes at 6.1 uM. The class given is cell-based.
Data set [2] concerns Plasmodium falciparum. The data set is described as follows: Antimalarial activity against Plasmodium falciparum liver stage form infected in human primary hepatocytes assessed as reduction in viability at 6.1 uM incubated for 3 days followed by compound wash and measured on day 6 relative to control. The class given is functional.
For data set [3], the system named is Hepatocyte. The data set can be described thus: Cytotoxicity against human primary hepatocytes at 17.6 uM. The class given is cell-based.
In data set [4] the test system is Plasmodium falciparum. The data set can be described thus: Antimalarial activity against Plasmodium falciparum liver stage form infected in human primary hepatocytes assessed as reduction in viability at 17.6 uM incubated for 3 days followed by compound wash and measured on day 6. The class given is functional, organism-based.
Data set [5] deals with Plasmodium falciparum. The data set is described as follows: Antimalarial activity against Plasmodium falciparum liver stage form infected in human primary hepatocytes assessed as reduction in viability at 19.3 uM incubated for 3 days followed by compound wash and measured on day 6 relative to control. It is filed as functional.
The test system of data set [6] is Hepatocyte. The data set can be described thus: Cytotoxicity against human primary hepatocytes at 19.3 uM. The class given is cell-based.

The structures appear in SMILES notation. Calls of active or inactive are those of the source. No cut-off for these calls is given here. Non-standard residues stand in square brackets, D forms with d. Residues, ends and D or L forms follow the SMILES beside them. *: point of attachment. NMeI = CC[C@H](C)[C@H](NC)C(=O)O; dNMeF = CN[C@H](Cc1ccccc1)C(=O)O; X1 = C(=C/c1c[nH]c2ccccc12)/N*; NMeV = CN[C@H](C(=O)O)C(C)C; NMeA = CN[C@@H](C)C(=O)O

For `CC[C@H](C)[C@@H](C(=O)N/C=C\c1c[nH]c2ccccc12)N(C)C(=O)[C@H]([C@@H](C)CC)N(C)C(=O)[C@H](C)N(C)C(=O)[C@H](C(C)C)N(C)C(=O)[C@@H](Cc1ccccc1)N(C)C(C)=O` (Ac-[dNMeF][NMeV][NMeA][NMeI][NMeI]-X1), the Activity result with Hepatocyte [1] is recorded as “Non-Toxic”. In addition, the inhibition at 6.1 µM with Plasmodium falciparum [2] lay in the range of 90 to 92%.
For `C[C@H]1[C@@H](O)O[C@@H]2O[C@@]3(C)CC[C@H]4[C@H](C)CC[C@@H]1[C@@]24OO3` [ARTENIMOL], the Activity entry with Hepatocyte [3] is “Non-Toxic”. In the data set with Plasmodium falciparum [4], the inhibition result is “inactive”.
For `COc1cc(NC(C)CCCN)c2ncccc2c1` (stereo unspecified) [PRIMAQUINE], the inhibition at 19.3 µM in the data set with Plasmodium falciparum [5] was greater than 90%. Besides, the Activity result with Hepatocyte [6] is on record as “Non-Toxic”.
